Experimental data from ChEMBL document CHEMBL1150067, “Anti-tumor-promoting activities of afromosin and soyasaponin I isolated from Wistaria brachybotrys” (1992).

Experiments:
Format in all cases: functional
Mus musculus [1] = assay: Inhibition of DMBA-induced/TPA-promoted carcinogenesis in mouse assessed as number of skin papillomas per mouse at 85 nmol administered twice weekly after 1 week of initiation measured after 20 weeks by two stage carcinogenesis test; set-up: scale not given: the % may be the effect or the level left
Mus musculus [2] = organism: Mus musculus; assay: Inhibition of 4NQO-induced carcinogenesis in mouse assessed as reduction of mouse with tumor at 1.25 mg after 25 weeks by two stage carcinogenesis test; set-up: scale not given: the % may be the effect or the level left
Mus musculus [3] = organism: Mus musculus; assay: Inhibition of 4NQO-induced carcinogenesis in mouse assessed as total number of tumors at 1.25 mg after 25 weeks by two stage carcinogenesis test
Mus musculus [4] = organism: Mus musculus; assay: Inhibition of 4NQO-induced carcinogenesis in mouse assessed as number of tumors per mouse at 1.25 mg after 25 weeks by two stage carcinogenesis test

Row | Compound | Activity (Mus musculus [1]) [%] | Activity (Mus musculus [2]) [%] | Activity (Mus musculus [3]) | Activity (Mus musculus [4])
1 | C[C@@H]1O[C@@H](O[C@H]2[C@H](O[C@H]3[C@H](O[C@H]4CC[C@@]5(C)[C@@H](CC[C@]6(C)[C@@H]5CC=C5[C@@H]7CC(C)(C)C[C@@H](O)[C@]7(C)CC[C@]56C)[C@@]4(C)CO)O[C@H](C(=O)O)[C@@H](O)[C@@H]3O)O[C@H](CO)[C@H](O)[C@@H]2O)[C@H](O)[C@H](O)[C@H]1O [SOYASAPONIN I] | 40 |  |  | 
2 | COc1ccc(-c2coc3cc(O)c(OC)cc3c2=O)cc1 [CASTANIN] | 40 | 60 | 14 | 0.93
